B1: TRAIL (protein, UniProt P50591 1-281, looked up)
Tumor necrosis factor ligand …: MAMMEVQGGPSLGQTCVLIVIFTVLLQSLCVAVTYVYFTNELKQMQDKYSKSGIACFLKEDDSYWDPNDEESMNSPCWQVKWQLRQLVRKMILRTSEETISTVQEKQQNISPLVRERGPQRVAAHITGTRGRSNTLSSPNSKNEKALGRKINSWESSRSGHSFLSNLHLRNGELVIHEKGFYYIYSQTYFRFQEEIKENTKNDKQMVQYIYKYTSYPDPILLMKSARNSCWSKDAEYGLYSIYQGGIFELKENDRIFVSVTNEHLIDMDHEASFFGAFLVG
notes: TRAIL at the current phase II of clinical trail

Columns and labels:
hepatitis C virus = experiment: α-interferon treatment of HCV-infected HLCZ01 cells (amount of HCV, quantitative PCR); format: cell-based, hepatitis C virus (in human hepatoma cell line HLCZ01); conditions: with respect to doses of α-interferon and time (hours), FIG. 10
Description: FIG. 10 is a column diagram for the human hepatoma cell line HLCZ01 according to the above first embodiment of the present invention, illustrating the amount of HCV with respect to the amount of interferon used and time (hours).
1. The human hepatoma cell line HLCZ01 cells and Huh7.5 cells are placed on the 6-well cell culture plate (200,000/well). After 24 hours, the medium is replaced with medium containing 2% FBS, and the cells are infected by HCV. The medium is changed after 24 hours. Huh7.5 cells and human hepatoma cell line HLCZ01 are cultured for 1 day, 2 days, 3 days and 6 days respectively, and TRIZOL is used to extract total RNA from the above mentioned two cell lines at different time points after virus infection. One microgram of the total RNA is reversely transcribed into cDNA, and 1 μL of cDNA are used as templates for processing quantitative PCR.
(§1) According to the human hepatoma cell line HLCZ01 of the present invention, the human hepatoma cell line HLCZ01 can also be used for the preparation, screening or evaluating anti-HCV drugs. […] Therefore, the human hepatoma cell line HLCZ01 of the present invention can be used for the preparation, screening or evaluating the anti-HCV drugs.

hepatitis B virus = experiment: α-interferon treatment of HBV-infected HLCZ01 cells (amount of HBV, quantitative PCR); format: cell-based, hepatitis B virus (in human hepatoma cell line HLCZ01); conditions: based on amount of α-interferon added and processing time (days), FIG. 9
Description: FIG. 9 is a column diagram for the human hepatoma cell line HLCZ01 according to the above second embodiment of the present invention, illustrating the amount of HBV with respect to the amount of interferon used and time (days).
The human hepatoma cell line HLCZ01 is placed on the 60 mm culture plate. After 24 hours, the medium (DMEM medium) is replaced to the mixture of a supernatant of HepaG2.2.15 cells with a complete medium (1:1 by volume ratio), and then the human hepatoma cell line HLCZ01 is continuously cultured. The cells were passaged every 3 to 5 days. DNA from HBV-infected human hepatoma cell line HLCZ01 was isolated every three days. One microgram of DNA from HBV-infected HLCZ01 cells is used as template for processing quantitative PCR and HBV DNA level in the human hepatoma cell line HLCZ01 is detected.
as §1, with “evaluating the anti-HBV” for “evaluating anti-HCV”, “the anti-HBV” for “the anti-HCV”

HLCZ01 cells = experiment: TRAIL sensitivity of HLCZ01 cells by flow cytometry; format: cell-based, human; conditions: HLCZ01 cells treated with TRAIL, FIG. 11

Row | Molecule | amount of virus in HCV-infected HLCZ01 cells (hepatitis C virus) | amount of HBV in the human hepatoma cell line HLCZ01 (hepatitis B virus) | death of the HLCZ01 cells (HLCZ01 cells)
1 | α-interferon | able to reduce the amount of virus in HCV-infected HLCZ01 cells | able to reduce the amount of HBV in the human hepatoma cell line HLCZ01 | –
2 | B1 | – | – | able to induce the death of the HLCZ01 cells

From patent US9989520B2, “Human hepatoma cell line HLCZ01 and uses thereof” (HUNAN PROVINCIAL TUMOR HOSPITAL, priority 2013, dated 2018)
